Measurements as given in ChEMBL document CHEMBL1201862, “PubChem BioAssay data set” (2004).
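All cell lines were grown in 96-well plates and treated with compound for 48 hours. GI50 marks 50% less growth.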 Calls of active or inactive are those of the source. Cut-off read from the data, not from the text of the source: active = GI50 up to about 1.1 µM and inactive = higher.

How the values were obtained:
Test in all cases: inhibition of tumour cell growth, NCI panel, 48 h
ACHN = test system: ACHN
UACC-257 = test system: UACC-257
SK-MEL-28 = test system: SK-MEL-28
RXF 393 = test system: RXF 393
OVCAR-8 = test system: OVCAR-8
SF-539 = test system: SF-539
NCI-H460 = test system: NCI-H460
786-0 = test system: 786-0
OVCAR-3 = test system: OVCAR-3
SR = test system: SR
A549 = test system: A549
U-251 = test system: U-251
RXF 631 = test system: RXF 631
SN12C = test system: SN12C
OVCAR-4 = test system: OVCAR-4
KM-20L2 = test system: KM-20L2
HT-29 = test system: HT-29
HOP-62 = test system: HOP-62
NCI-H226 = test system: NCI-H226
MOLT-4 = test system: MOLT-4
SNB-78 = test system: SNB-78
DMS-273 = test system: DMS-273
Malme-3M = test system: Malme-3M
HCC 2998 = test system: HCC 2998
KM12 = test system: KM12
SK-MEL-2 = test system: SK-MEL-2
HOP-18 = test system: HOP-18
TK-10 = test system: TK-10
UACC-62 = test system: UACC-62
COLO 205 = test system: COLO 205
SF-268 = test system: SF-268
UO-31 = test system: UO-31
CAKI-1 = test system: CAKI-1
NCI-H522 = test system: NCI-H522
OVCAR-5 = test system: OVCAR-5
HOP-92 = test system: HOP-92
HCT-15 = test system: HCT-15
K562 = test system: K562
HL-60 = test system: HL-60
IGROV-1 = test system: IGROV-1
LOX IMVI = test system: LOX IMVI
LXFL 529 = test system: LXFL 529
M14 = test system: M14
SNB-75 = test system: SNB-75
DMS-114 = test system: DMS-114
SNB-19 = test system: SNB-19
HCT-116 = test system: HCT-116
EKVX = test system: EKVX
DLD-1 = test system: DLD-1
SW-620 = test system: SW-620
A498 = test system: A498
SK-MEL-5 = test system: SK-MEL-5
M19-MEL = test system: M19-MEL
SK-OV-3 = test system: SK-OV-3
SF-295 = test system: SF-295
NCI-H23 = test system: NCI-H23
CCRF-CEM = test system: CCRF-CEM

Measured: GI50

O=c1c2ccccc2c2c3c1cccc3c1cccc3c(=O)c4ccccc4c2c31
inactive: ACHN > 100 µM | UACC-257 > 100 µM | SK-MEL-28 > 100 µM | RXF 393 > 100 µM | OVCAR-8 > 100 µM | SF-539 > 100 µM | NCI-H460 > 100 µM | 786-0 > 100 µM | OVCAR-3 > 100 µM | SR > 100 µM | A549 > 100 µM | U-251 > 100 µM | RXF 631 > 100 µM | SN12C > 100 µM | OVCAR-4 > 100 µM | KM-20L2 > 100 µM | HT-29 > 100 µM | HOP-62 > 100 µM | NCI-H226 > 100 µM | MOLT-4 46.3 µM | SNB-78 > 100 µM | DMS-273 > 100 µM | Malme-3M > 100 µM | HCC 2998 > 100 µM | KM12 > 100 µM | SK-MEL-2 > 100 µM | HOP-18 > 100 µM | TK-10 > 100 µM | UACC-62 > 100 µM | COLO 205 > 100 µM | SF-268 > 100 µM | UO-31 > 100 µM | CAKI-1 > 100 µM | NCI-H522 > 100 µM | OVCAR-5 > 100 µM | HOP-92 > 100 µM | K562 > 100 µM | HL-60 > 10 µM | IGROV-1 > 100 µM | LOX IMVI > 100 µM | LXFL 529 > 100 µM | M14 > 100 µM | SNB-75 > 100 µM | DMS-114 > 100 µM | SNB-19 > 100 µM | HCT-116 > 100 µM | EKVX > 100 µM | DLD-1 > 100 µM | SW-620 > 100 µM | A498 > 100 µM | SK-MEL-5 > 100 µM | M19-MEL > 100 µM | SK-OV-3 > 100 µM | SF-295 > 100 µM | NCI-H23 > 100 µM | CCRF-CEM > 100 µM
> 100 µM: HCT-15
